Assay results published in ChEMBL document CHEMBL1149616, “Antiproliferative, low-calcemic, fluorinated sulfone analogs of 1alpha,25-dihydroxyvitamin D3: chemical synthesis and biological evaluation” (Bioorg Med Chem, 2007).
Activity calls are given as the source filed them. The rule behind the calls is not given here.

Experiments:
Keratinocyte [1] = test: Antiproliferative activity against mouse keratinocytes at 3 to 7 nM; format: functional, cell-based
Keratinocyte [2] = test: Antiproliferative activity against mouse keratinocytes at 7 nM; format: functional, cell-based

Structure (SMILES)	Activity (Keratinocyte [1])	Activity (Keratinocyte [2])
C=C1/C(=C\C=C2/CCC[C@]3(C)[C@@H]([C@@H](C)OCCCS(=O)(=O)C(F)(F)F)CC[C@@H]23)C[C@@H](O)C[C@@H]1O	Active	–
C=C1/C(=C\C=C2/CCC[C@]3(C)C([C@H](C)CCCS(=O)(=O)C(F)(F)F)=CC[C@@H]23)C[C@@H](O)C[C@@H]1O	–	Active
